Measurements as given in patent publication US20240316047A1, “INHIBITORS OF RNA HELICASE DHX9 AND USES THEREOF” (ACCENT THERAPEUTICS, INC., priority 2022, published 2024).

Molecular target: Human recombinant DHX9 protein (Homo sapiens (Human), UniProt Q08211)
Assay: DHX9 ATPase assay (ADP-Glo)
Type: biochemical
Details: for IC50: read-out: DHX9 Biochemical Inflection Point

Human recombinant DHX9 protein, sequence (Q08211 whole entry): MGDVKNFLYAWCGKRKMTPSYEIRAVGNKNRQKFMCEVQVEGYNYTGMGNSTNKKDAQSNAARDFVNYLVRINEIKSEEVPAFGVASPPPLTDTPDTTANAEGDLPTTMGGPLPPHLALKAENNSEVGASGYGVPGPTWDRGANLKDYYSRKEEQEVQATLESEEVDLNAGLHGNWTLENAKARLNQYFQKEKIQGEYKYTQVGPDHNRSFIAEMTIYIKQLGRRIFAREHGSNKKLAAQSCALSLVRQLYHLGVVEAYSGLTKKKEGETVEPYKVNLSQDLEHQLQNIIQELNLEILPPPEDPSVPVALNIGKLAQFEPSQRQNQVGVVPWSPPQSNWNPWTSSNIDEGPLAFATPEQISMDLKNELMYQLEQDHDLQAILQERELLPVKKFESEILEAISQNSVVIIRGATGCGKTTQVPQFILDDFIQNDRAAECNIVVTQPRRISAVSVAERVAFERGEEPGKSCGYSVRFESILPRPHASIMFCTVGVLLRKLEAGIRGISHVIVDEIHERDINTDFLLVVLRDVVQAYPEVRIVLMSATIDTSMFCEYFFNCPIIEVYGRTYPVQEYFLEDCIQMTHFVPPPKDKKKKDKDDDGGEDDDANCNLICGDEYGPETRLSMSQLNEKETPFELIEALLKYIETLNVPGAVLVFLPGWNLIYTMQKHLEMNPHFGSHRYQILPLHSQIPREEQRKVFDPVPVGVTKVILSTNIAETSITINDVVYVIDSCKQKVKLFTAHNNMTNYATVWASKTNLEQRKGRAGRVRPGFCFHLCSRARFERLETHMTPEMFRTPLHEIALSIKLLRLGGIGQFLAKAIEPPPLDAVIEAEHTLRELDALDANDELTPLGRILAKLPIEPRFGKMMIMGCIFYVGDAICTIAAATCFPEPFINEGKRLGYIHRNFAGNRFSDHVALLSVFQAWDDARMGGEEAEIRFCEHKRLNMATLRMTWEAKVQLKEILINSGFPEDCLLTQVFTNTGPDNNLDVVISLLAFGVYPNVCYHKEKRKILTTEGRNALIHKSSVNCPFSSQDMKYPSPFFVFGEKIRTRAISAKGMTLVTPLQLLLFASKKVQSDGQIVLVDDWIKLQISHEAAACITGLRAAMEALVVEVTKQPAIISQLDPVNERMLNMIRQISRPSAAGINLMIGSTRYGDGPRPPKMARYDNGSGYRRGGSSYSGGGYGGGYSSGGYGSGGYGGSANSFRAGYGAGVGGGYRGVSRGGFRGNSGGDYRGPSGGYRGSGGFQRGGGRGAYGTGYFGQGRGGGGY

| Compound | DHX9 Biochemical Max Inhibition | IC50 |
| --- | --- | --- |
| CS(=O)(=O)Nc1cc(Cl)cc(NC(=O)c2cc3cc(Cl)ccc3s2)c1 [Example 298] | 58.8% | 4210 nM |
| Cc1sc(C(=O)Nc2cc(Cl)cc(NS(C)(=O)=O)c2)cc1-c1ncc(F)cc1F [Example 349] | 76.4% | 23.7 nM |
| Cc1cc(C(=O)Nc2cc(Cl)cc(NS(C)(=O)=O)c2)cn1-c1ncc(F)cc1-c1cncc(F)c1 [Example 666] | 78.4 | 121 nM |
| Cn1cc(C(=O)Nc2cc(Cl)cc(NS(C)(=O)=O)c2)cc1-c1ncc(N2CC(C(F)(F)F)C2)cn1 [Example 493] | 67 | 24.8 nM |
| CS(=O)(=O)Nc1cc(Cl)cc(NC(=O)c2cnn(-c3ncccc3OCc3ccccn3)c2)c1 [Example 63] | 66.2% | 83.9 nM |
| CS(=O)(=O)Nc1cc(Cl)cc(NC(=O)c2cc(C(F)(F)F)n(-c3ccc(F)cn3)c2)c1 [Example 267] | 66.4% | 248 nM |
| CS(=O)(=O)Nc1cc(Br)cc(NC(=O)c2cnn(-c3ccccc3CO)c2)c1 [Example 161, N-(3-bromo-5-(methylsulfonamido)phenyl)-1-(2-(hydroxymethyl)phenyl)-1H-pyrazole-4-carboxamide] | 44.9% | 48.4 nM |
| Cc1cc(C(=O)Nc2cc(Cl)cc(NS(C)(=O)=O)c2)cn1-c1ccccc1 [Example 129, N-(3-chloro-5-(methylsulfonamido)phenyl)-5-methyl-1-phenyl-1H-pyrrole-3-carboxamide] | 66.4% |  |
| COc1cc2cc(C(=O)Nc3cc(Cl)cc(NS(C)(=O)=O)c3)sc2cc1OC [Example 291] | 59.7% | 144 nM |
| CS(=O)(=O)Nc1cc(Cl)cc(NC(=O)c2cc3ncccc3s2)c1 [Example 289] | 66.9% | 80.6 nM |
| CCS(=O)(=O)Nc1cc(Cl)cc(NC(=O)c2cc(-c3cccnc3)cs2)c1 [Example 110] | 53.7% | 40 nM |
| Cc1cc(C(=O)Nc2cc(Cl)cc(NS(C)(=O)=O)c2)cn1-c1ncc(N2CC(F)(F)C2)cc1Cl [Example 406] | 75.7 | 55.1 nM |
| Cc1cccnc1-c1csc(C(=O)Nc2cc(Cl)cc(NS(C)(=O)=O)c2)c1C [Example 684] | 50.6 | 8310 nM |
| Cc1cc(C(=O)Nc2cc(Cl)cc(NS(C)(=O)=O)c2)cn1-c1ccc(OC(C)(C)C)cn1 [Example 663] | 66.3 | 33 nM |
| CS(=O)(=O)Nc1cc(Cl)cc(NC(=O)c2cnn(-c3ncc(F)cc3CCc3cccc(F)c3)c2)c1 [Example 251] | 64.7% | 5200 nM |
| CS(=O)(=O)Nc1cc(Cl)cc(NC(=O)c2cnn(-c3ncccc3OCc3ccn[nH]3)c2)c1 [Example 253] | 70% | 110 nM |
| Cn1cc(C(=O)Nc2cc(Cl)cc(NS(C)(=O)=O)c2)cc1-c1ccc(OC(C)(C)C)cn1 [Example 555] | 61.9 | 43.6 nM |

| Compound | DHX9 Biochemical Max Inhibition | IC50 |
| --- | --- | --- |
| CS(=O)(=O)Nc1cc(Cl)cc(NC(=O)c2cccc(-c3ccnc(Cl)c3)c2)c1 [Example 102, N-(3-chloro-5-(methylsulfonamido)phenyl)-3-(2-chloropyridin-4-yl)benzamide] | 61.8% | 762 nM |
| Cn1cc(C(=O)Nc2cc(Cl)cc(NS(C)(=O)=O)c2)cc1-c1ccc(N2CCN(C(=O)C3CCCC3)CC2)cn1 [Example 592] | 77.5 | 54.1 nM |
| CS(=O)(=O)Nc1cc(Cl)cc(NC(=O)c2cnn(-c3ncccc3COc3cncc(F)c3)c2)c1 [Example 262] | 66.5% | 120 nM |
| CS(=O)(=O)Nc1cc(F)cc(NC(=O)c2c[nH]c(Br)c2)c1 [Example 2] | 64.8% | 173 nM |
| CC(=O)N1CCN(c2ccc(-n3cc(C(=O)Nc4cc(Br)cc(NS(C)(=O)=O)c4)cn3)nc2)CC1 [Example 86, 1-(5-(4-acetylpiperazin-1-yl)pyridin-2-yl)-N-(3-bromo-5-(methylsulfonamido)phenyl)-1H-pyrazole-4-carboxamide] | 51.5% | 18.4 nM |
| CCOc1cnc(-n2cc(C(=O)Nc3cc(Cl)cc(NS(C)(=O)=O)c3)cc2C(F)(F)F)nc1 [Example 693] | 64.9 | 408 nM |
| CS(=O)(=O)Nc1cc(Cl)cc(NC(=O)c2cc(C(=O)N3CC4(CNC4)C3)n(-c3ccccn3)c2)c1 [Example 643] | 61.4 | 40.8 nM |
| CS(=O)(=O)Nc1cc(Cl)cc(NC(=O)c2cc(-c3ccc(F)cn3)n(S(C)(=O)=O)c2)c1 [Example 701] | 66.9 | 115 nM |
| CS(=O)(=O)Nc1cc(Cl)cc(NC(=O)c2cc(-c3ccc(N4CCOCC4)cn3)n(CC(F)(F)F)c2)c1 [Example 275] | 75.1% | 76.2 nM |
| CP(C)(=O)c1cccnc1-n1cc(C(=O)Nc2cc(Cl)cc(NS(C)(=O)=O)c2)cn1 [Example 201] | 66.1% | 184 nM |
| Cc1cccc2cc(C(=O)Nc3cc(Cl)cc(NS(C)(=O)=O)c3)cn12 [Example 304] | 59.1% | 399 nM |
| CS(=O)(=O)Nc1cc(Cl)cc(NC(=O)c2cc(-c3ccc(N4CC5(COC5)C4)cn3)n(CC(F)(F)F)c2)c1 [Example 278] | 74.1% | 44.2 nM |
| CS(=O)(=O)Nc1cc(Br)cc(NC(=O)c2cccc(-n3cccn3)c2)c1 [Example 118] | 55.8% | 45.1 nM |
| CS(=O)(=O)Nc1cc(Cl)cc(NC(=O)c2cccc(-c3cccc(C#N)c3)c2)c1 [Example 13] | 41.7% | 1150 nM |
| CCS(=O)(=O)Nc1cc(Cl)cc(NC(=O)c2cc(-c3ncc(OC)cn3)c(C)s2)c1 [Example 353] | 69.2% | 24.2 nM |
| CCCS(=O)(=O)Nc1cc(Cl)cc(NC(=O)c2cc(-c3ccc(N4CC(F)(F)C4)cn3)n(C)c2)c1 [Example 531] | 72.3 | 2600 nM |

More lines, in order of falling IC50, values ahead:

| DHX9 Biochemical Max Inhibition | IC50 | Compound |
| --- | --- | --- |
| 71.4% | 22.6 nM | CS(=O)(=O)Nc1cc(Cl)cc(NC(=O)c2cnn(-c3ncccc3OCc3nccs3)c2)c1 [Example 205] |
| 74.2 | 21.6 nM | CCS(=O)(=O)Nc1cc(Cl)cc(NC(=O)c2cc(C)n(-c3ncc(N4CC(F)(F)C4)cn3)c2)c1 [Example 423] |
| 69.3 | 20.5 nM | Cc1cc(C(=O)Nc2cc(Cl)cc(NS(C)(=O)=O)c2)cn1-c1ccc(N2CCCC2=O)cn1 [Example 410] |
| 63.3% | 18.5 nM | CC(=O)N1CCN(c2ccnc(-n3cc(C(=O)Nc4cc(Cl)cc(NS(C)(=O)=O)c4)cn3)c2)CC1 [Example 148, 1-(4-(4-acetylpiperazin-1-yl)pyridin-2-yl)-N-(3-chloro-5-(methylsulfonamido)phenyl)-1H-pyrazole-4-carboxamide] |
| 69.6 | 17.5 nM | Cc1sc(C(=O)Nc2cc(Cl)cc(NS(C)(=O)=O)c2)cc1-c1ncc(N2CCC(F)(F)C2)cn1 [Example 479] |
| 69.35 | 17.5 nM | Cn1cc(C(=O)Nc2cc(Cl)cc(NS(C)(=O)=O)c2)cc1-c1ccc(N2CC(F)(F)C2)cn1 [Example 595, N-(3-chloro-5-methanesulfonamidophenyl)-5-[5-(3,3-difluoroazetidin-1-yl)pyridin-2-yl]-1-methyl-1H-pyrrole-3-carboxamide] |
| 89.7 | 16.6 nM | Cn1cc(C(=O)Nc2cc(Cl)cc(NS(C)(=O)=O)c2)cc1-c1cc(N2CC(F)(F)C2)ccn1 [Example 552] |
| 70.8 | 13.7 nM | Cn1cc(C(=O)Nc2cc(Cl)cc(NS(C)(=O)=O)c2)cc1-c1ncc(N2CCCC2)cn1 [Example 520] |
| 77.5% | 12.7 nM | Cc1cc(C(=O)Nc2cc(Cl)cc(NS(C)(=O)=O)c2)cn1-c1ncccn1 [Example 59] |
| 83.4 | 10.9 nM | CN1C(=O)N(c2ccc(-c3cc(C(=O)Nc4cc(Cl)cc(NS(C)(=O)=O)c4)cn3C)nc2)C(=O)C1(C)C [Example 603] |
| 68.9% | 9.6 nM | Cc1ccc(OCc2cccc(F)c2)c(-n2cc(C(=O)Nc3cc(Cl)cc(NS(C)(=O)=O)c3)cn2)n1 [Example 204] |
| 66.9 | 9.2 nM | Cn1cc(C(=O)Nc2cc(Cl)cc(NS(C)(=O)=O)c2)cc1-c1ccc(N2CCC2)cn1 [Example 538] |
| 69.7 | 8.5 nM | Cn1cc(C(=O)Nc2cc(Cl)cc(NS(C)(=O)=O)c2)cc1-c1ccc(N2CC(CS(C)(=O)=O)C2)cn1 [Example 695] |
| 59 | 7 nM | CN1CC[C@@H](Oc2cnc(-c3cc(C(=O)Nc4cc(Cl)cc(NS(C)(=O)=O)c4)cn3C)c(F)c2)C1 [Example 640] |
| 83.05% | 6.2 nM | COc1cnc(-c2cc(C(=O)Nc3cc(Cl)cc(NS(C)(=O)=O)c3)sc2C)nc1 [Example 341] |
| 74.8 | 5.9 nM | Cc1sc(C(=O)Nc2cc(Cl)cc(NS(C)(=O)=O)c2)cc1-c1ccc(N2CCN(C(=O)C3CC3)CC2)cn1 [Example 590, N-(3-chloro-5-methanesulfonamidophenyl)-4-[5-(4-cyclopropanecarbonylpiperazin-1-yl)pyridin-2-yl]-5-methylthiophene-2-carboxamide] |
| 66.9 | 5.8 nM | CCOc1cnn(-c2cc(C(=O)Nc3cc(Cl)cc(NS(C)(=O)=O)c3)sc2C)c1 [Example 438] |
| 79.3 | 2.9 nM | CS(=O)(=O)Nc1cc(Cl)cc(NC(=O)c2cnn(-c3ncccc3-c3cncc(F)c3)c2)c1 [Example 392] |
| 93.6 | 2.2 nM | CC(=O)N1CCC(c2cnc(-c3cc(C(=O)Nc4cc(Cl)cc(NS(C)(=O)=O)c4)sc3C)nc2)CC1 [Example 699] |
